# Where two headings read alike, the source gives them in different places.
# Biological target: GSK-3β (Homo sapiens, UniProt P49841)
# Test: Assay for GSK-3β inhibiting activity (32P-ATP, phospho-CREB peptide substrate, filter paper, CPM)
# Format: biochemical
# Procedure: Assay for GSK-3β inhibiting activity
# First, PCR (polymerase chain reaction) was carried out using human DNA as a template as well as primers which were designed to correspond to the 3′- and 5′ ends of the polynucleotide coding human GSK-3β gene (Genbank Accession No.: L33801). The BamH1/XhoI fragment of the amplified PCR product thus obtained was inserted into the pGex vector between the BamH1 and XhoI sites, and the vector obtained was transformed into E. coli BL21(DE3). The transformed cells thus obtained was incubated in […] (1% Bacto-trypton, 0.5% yeast extract, 1% NaCl) containing ampicillin ([…]) until the optical density at 600 nm reached about 0.5. The cultured mixture was cooled to 18° C. and isopropyl β-D-thiogalacto-pyranoside (IPTG) was added thereto to a final concentration of 0.5 mM. After 16 hours, the resultant was centrifuged at 10,000×g for 10 min, the collected cells were suspended in a buffer solution (30 mM Tris-HCl (pH 7.5), 100 mM NaCl, 5% glycerol, 2 mM DTT) and the cells were disrupted using Sonic Dismembrator (Fisher, U.S.A.) in a ice bath. The resulting solution was centrifuged at 16,000 rpm for 30 minutes. […] The purified GSK-3β protein was diluted in a buffer solution (20 mM HEPES (pH 7.5), 5% glycerol, 2 mM DTT) to a final concentration of 50 mM NaCl and the resulting solution was subjected to mono S column chromatography (eluent: linear gradient from 0M to 1M NaCl buffer) using mono S column (Pharmacia Biotech, U.S.A.) equilibrated in the same buffer solution to obtain GSK-3β protein.
# The reaction was stopped by adding 5 μl of 5% phosphoric acid to 25 μl of the resulting solution. The resulting mixture was centrifuged at 15,000 rpm for 10 min, 20 μl of the supernatant was added dropwise to Whatman p81 filter paper, and then, the resulting filter paper was washed with 0.5% phosphate buffer for 10 min. The filter paper was further washed 3 times and the enzymatic activity was determined by examining the extent of phospho-CREB peptide phosphorylation which is represented by the unit of count per minute (CPM), measured with a β-counter (Packard, USA).
# The GSK-3β inhibiting activity was then calculated in accordance with the following equation:
# [formula] wherein the blank represents a value obtained without the use of the enzyme and the compound of the present invention, and the control, in the absence of the compound of the present invention.
# [1] = GSK-3β inhibiting activity, 100 nM GSK-3β protein, 100 μM phospho-CREB peptide, 100 μM ATP, 30° C. for 1 hour, read-out: IC50
# Sequence of GSK-3β (P49841 whole entry): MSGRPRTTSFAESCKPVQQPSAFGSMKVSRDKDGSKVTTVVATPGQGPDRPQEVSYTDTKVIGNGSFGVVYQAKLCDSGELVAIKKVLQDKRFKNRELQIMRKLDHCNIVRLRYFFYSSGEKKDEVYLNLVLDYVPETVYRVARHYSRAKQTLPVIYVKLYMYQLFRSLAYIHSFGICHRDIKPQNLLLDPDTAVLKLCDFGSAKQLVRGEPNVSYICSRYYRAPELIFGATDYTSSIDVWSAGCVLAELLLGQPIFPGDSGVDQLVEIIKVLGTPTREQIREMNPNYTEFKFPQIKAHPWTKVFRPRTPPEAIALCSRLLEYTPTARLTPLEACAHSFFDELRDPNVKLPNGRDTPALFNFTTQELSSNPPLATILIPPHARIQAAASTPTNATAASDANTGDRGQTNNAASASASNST
IC50 [1] [µM],Structure (SMILES),IC50 (IC50 (μM)) [µM]
0.02,CCc1nccn1CCCNC(=O)c1ccc(O)c2[nH]c(-c3ccc(F)cc3F)nc12 [Compound 196],–
0.001,CCS(=O)(=O)Nc1ccc(CCNC(=O)c2ccc(O)c3[nH]c(-c4ccc(F)cc4F)nc23)cc1 [Compound 142],–
0.24,O=C(NCCc1ccc(OCCN2CCOCC2)cc1)c1ccc(O)c2[nH]c(-c3ccc(F)cc3)nc12 [Compound 136],–
0.08,O=C(NCCCn1ccnc1)c1ccc(O)c2[nH]c(-c3ccccc3)nc12 [Compound 165],–
0.12,O=C(NCCc1cccc(Br)c1)c1ccc(O)c2[nH]c(-c3ccc(F)cc3)nc12 [Compound 139],–
0.15,CC(C)c1nccn1CCCNC(=O)c1ccc(O)c2[nH]c(-c3ccc(Cl)cc3Cl)nc12 [Compound 184],–
0.002,O=C(NCCCn1cnc(Cl)c1Cl)c1ccc(O)c2[nH]c(-c3ccc(F)cc3Cl)nc12 [Compound 200],–
> 1,COc1ccccc1CCNC(=O)c1ccc(O)c2[nH]c(-c3ccc(F)cc3)nc12 [Compound 138],–
0.8,O=C(NCCCn1ccnc1-c1ccccc1)c1ccc(O)c2[nH]c(-c3ccc(Cl)cc3)nc12 [Compound 172],–
0.28,CN1CCN(CC(=O)Nc2ccc(CCNC(=O)c3ccc(O)c4[nH]c(-c5ccc(F)cc5Cl)nc34)cc2)CC1 [Compound 156],–
0.005,O=C(NCCc1ccccc1O)c1ccc(O)c2[nH]c(-c3ccc(F)cc3)nc12 [Compound 137],–
0.2,O=C(NCCCN1CCCC1=O)c1ccc(O)c2[nH]c(-c3ccc(Cl)cc3Cl)nc12 [Compound 177],–
0.1,Cc1nccn1CCCNC(=O)c1ccc(O)c2[nH]c(-c3ccccc3)nc12 [Compound 167],–
0.09,CC(C)c1nccn1CCCNC(=O)c1ccc(O)c2[nH]c(-c3ccc(F)cc3F)nc12 [Compound 191],–
0.05,CC(C)c1nccn1CCCNC(=O)c1ccc(O)c2[nH]c(-c3ccc(F)cc3)nc12 [Compound 186],–
0.84,O=C(NCCCN1CCCC1=O)c1ccc(O)c2[nH]c(-c3ccccc3)nc12 [Compound 164],–
0.006,O=C(NCCCn1cnc(Cl)c1Cl)c1ccc(O)c2[nH]c(-c3ccc(F)cc3)nc12 [Compound 190],–
0.06,O=C(NCCc1ccc(O)cc1)c1ccc(O)c2[nH]c(-c3ccc(F)cc3Cl)nc12 [Compound 150],–
0.07,CCCCC(=O)Nc1ccc(CCNC(=O)c2ccc(O)c3[nH]c(-c4ccc(F)cc4)nc23)cc1 [Compound 120],–
0.12,CN(C)CC(=O)Nc1ccc(CCNC(=O)c2ccc(O)c3[nH]c(-c4ccc(F)cc4)nc23)cc1 [Compound 129],–
0.01,Cc1cn(CCCNC(=O)c2ccc(O)c3[nH]c(-c4ccc(F)cc4Cl)nc23)cn1 [Compound 199],–
> 5,O=C(NCCN1CCOCC1)c1ccc(O)c2[nH]c(-c3ccc(F)cc3)nc12 [Compound 119],–
> 1,O=C(NCCCn1ccnc1)c1ccc(O)c2[nH]c(-c3ccc(F)cc3)nc12 [Compound 185],–
> 1,CCc1nccn1CCCNC(=O)c1ccc(O)c2[nH]c(-c3ccc(F)cc3)nc12 [Compound 189],–

# More lines, now with the values behind:
Structure (SMILES),IC50 [1] [µM],IC50 (IC50 (μM)) [µM]
Cc1ccc(S(=O)(=O)Nc2ccc(CCNC(=O)c3ccc(O)c4[nH]c(-c5ccc(Cl)cc5Cl)nc34)cc2)cc1 [Compound 105],0.05,–
O=C(Nc1ccc(CCN2C(=O)c3ccccc3C2=O)cc1)c1ccc(O)c2[nH]c(-c3ccccc3)nc12 [Compound 11],> 5,–
CCN1CCN(CC(=O)Nc2ccc(CCNC(=O)c3ccc(O)c4[nH]c(-c5ccc(Cl)cc5)nc34)cc2)CC1 [Compound 87],0.23,–
O=C(NCCc1ccc(N2C(=O)c3ccccc3C2=O)cc1)c1ccc(O)c2[nH]c(-c3ccc(Cl)cc3Cl)nc12 [Compound 107],0.05,–
O=C(CN1CCOCC1)Nc1ccc(CCNC(=O)c2ccc(O)c3[nH]c(-c4ccc(Cl)cc4)nc23)cc1 [Compound 92],0.08,–
CS(=O)(=O)NCCc1ccc(NC(=O)c2ccc(O)c3[nH]c(-c4ccc(F)cc4F)nc23)cc1 [Compound 37],> 1,–
COc1cc(CCNC(=O)c2ccc(O)c3[nH]c(-c4ccc(Cl)cc4Cl)nc23)ccc1O [Compound 101],> 1,–
O=C(NCCc1ccc(OCCN2CCOCC2)cc1)c1ccc(O)c2[nH]c(-c3ccc(Cl)cc3)nc12 [Compound 94],> 5,–
O=C(NCCc1ccc([N+](=O)[O-])cc1)c1ccc(O)c2[nH]c(-c3ccccc3)nc12 [Compound 59],0.16,–
COc1ccc(CCNC(=O)c2ccc(O)c3[nH]c(-c4ccccc4)nc23)cc1O [Compound 63],0.45,–
COc1ccc(CCNC(=O)c2ccc(O)c3[nH]c(-c4ccc(Cl)cc4)nc23)cc1O [Compound 77],0.033,–
O=C(Nc1ccc(CO)cc1)c1ccc(O)c2[nH]c(-c3ccc(Cl)cc3Cl)nc12 [Compound 26],> 1,–
O=C(NCc1ccccc1)c1ccc(O)c2nc(-c3ccccc3)[nH]c12 [Compound 51],0.87,–
Cc1ccc(S(=O)(=O)NCCc2ccc(NC(=O)c3ccc(O)c4[nH]c(-c5ccc(F)cc5F)nc34)cc2)cc1 [Compound 38],> 1,–
O=C(Nc1ccc(CCN2C(=O)c3ccccc3C2=O)cc1)c1ccc(O)c2[nH]c(-c3ccc(Cl)cc3Cl)nc12 [Compound 30],> 1,–
O=C(Nc1ccc(N2CCOCC2)cc1)c1ccc(O)c2[nH]c(-c3ccc(F)cc3)nc12 [Compound 36],> 1,–
O=C(NCc1ccc([N+](=O)[O-])cc1)c1ccc(O)c2[nH]c(-c3ccccc3)nc12 [Compound 49],0.6,–
Cc1ccc(S(=O)(=O)NCCc2ccc(NC(=O)c3ccc(O)c4[nH]c(-c5ccc(F)cc5Cl)nc34)cc2)cc1 [Compound 40],> 1,–
O=C(NCCNc1ccc([N+](=O)[O-])cn1)c1ccc(O)c2[nH]c(-c3ccccc3)nc12 [Compound 69],> 1,–
CC(=O)Nc1ccc(CCNC(=O)c2ccc(O)c3[nH]c(-c4ccc(Cl)cc4Cl)nc23)cc1 [Compound 112],0.04,–
CC(=O)Nc1ccc(CCNC(=O)c2ccc(O)c3[nH]c(-c4ccc(F)cc4)nc23)cc1 [Compound 117],0.03,–
CS(=O)(=O)NCCc1ccc(NC(=O)c2ccc(O)c3[nH]c(-c4ccc(Cl)cc4Cl)nc23)cc1 [Compound 29],–,0.08
Cc1ccc(S(=O)(=O)NCCc2ccc(NC(=O)c3ccc(O)c4[nH]c(-c5ccc(Cl)cc5Cl)nc34)cc2)cc1 [Compound 28],0.74,–
CCS(=O)(=O)Nc1ccc(CCNC(=O)c2ccc(O)c3nc(-c4ccc(Cl)cc4Cl)[nH]c23)cc1 [Compound 109],–,0.03
O=C(NCCc1ccc([N+](=O)[O-])cc1)c1ccc(O)c2[nH]c(-c3ccc(Cl)cc3Cl)nc12 [Compound 100],0.2,–
O=C(NCCc1ccccn1)c1ccc(O)c2[nH]c(-c3ccc(Cl)cc3)nc12 [Compound 82],> 1,–
"NC(=O)c1ccc(O)c2[nH]c(-c3ccccc3)nc12 [Compound 1, 7-hydroxy-2-phenyl-1H-benzoimidazole-4-carboxylic acid amide]",> 1,–
CN1CCN(CCOc2ccc(CCNC(=O)c3ccc(O)c4[nH]c(-c5ccc(Cl)cc5)nc34)cc2)CC1 [Compound 95],> 1,–
O=C(NCc1ccccc1)c1ccc(O)c2[nH]c(-c3ccc(Cl)cc3)nc12 [Compound 52],> 1,–
O=C(NC1CCC(O)CC1)c1ccc(O)c2[nH]c(-c3ccc(Cl)cc3Cl)nc12 (stereo not drawn) [Compound 23],0.68,–
